The values below come from PMC9545004, “Transglutaminase 2 affinity and enzyme‐substrate intermediate stability as determining factors for T‐cell responses to gluten peptides in celiac disease” (European Journal of Immunology, 2022).

No end group written: not given here. *: point of attachment. FITC = O=C1OC2(c3ccc(O)cc3Oc3cc(O)ccc32)c2ccc(NC(=S)*)cc21; Ahx = NCCCCCC(=O)O

For assay [1], the target named is T1, Recombinant human TG2 (Homo sapiens, UniProt P21980).
T1 construct: His-tag (C); made in house; host or cells: Sf+ express insect cells (pACAB3 vector)
T1 sequence (P21980 1-687): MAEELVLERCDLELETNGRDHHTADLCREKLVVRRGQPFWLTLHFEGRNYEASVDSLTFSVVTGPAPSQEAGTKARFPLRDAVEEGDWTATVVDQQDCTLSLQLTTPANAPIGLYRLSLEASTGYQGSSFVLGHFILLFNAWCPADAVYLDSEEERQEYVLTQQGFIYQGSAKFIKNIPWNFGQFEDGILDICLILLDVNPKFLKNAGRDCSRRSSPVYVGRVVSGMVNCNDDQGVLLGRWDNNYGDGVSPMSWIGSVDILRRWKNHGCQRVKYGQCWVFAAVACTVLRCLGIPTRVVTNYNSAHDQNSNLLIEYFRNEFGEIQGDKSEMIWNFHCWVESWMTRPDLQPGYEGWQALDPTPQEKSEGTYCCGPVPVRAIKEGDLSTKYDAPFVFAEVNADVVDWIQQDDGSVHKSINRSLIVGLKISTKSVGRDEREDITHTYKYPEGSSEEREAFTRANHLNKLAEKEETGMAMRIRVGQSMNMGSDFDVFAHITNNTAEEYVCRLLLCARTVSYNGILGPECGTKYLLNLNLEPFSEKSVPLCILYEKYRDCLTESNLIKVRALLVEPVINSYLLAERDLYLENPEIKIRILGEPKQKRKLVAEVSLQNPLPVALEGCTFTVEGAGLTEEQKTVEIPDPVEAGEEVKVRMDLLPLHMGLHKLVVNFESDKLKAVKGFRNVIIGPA
As to the kind of experiment: TG2 enzyme kinetic assay, GDH-coupled ammonia release. As to conditions: for Km / kcat / kcat/Km: GDH-coupled, MOPS pH 7.2, TG2 50 µg/mL, 37°C, A340; for Km / kcat: mean and SD from three independent experiments. The format is biochemical. The text has this:
To test the influence of substrate affinity for TG2 on B‐cell uptake, we determined kinetic parameters for gluten peptides harboring the essential TG2 targeted glutamine residue within the DQ2.5‐glia‐α2, DQ2.5‐glia‐ω2, DQ2.5‐glia‐γ1, or DQ2.5‐glia‐γ3 T‐cell epitopes. To directly compare differences in TG2 affinity between the glutamines from the different peptides, we tested 9‐mer peptides harboring only one TG2 targeted glutamine residue.
Recombinant human TG2 with a C‐terminal His‐tag was expressed in Sf+ express insect cells. Briefly, human TGM2 was cloned into the pACAB3 vector, and protein was expressed for 3 days followed by lysis and purification by nickel‐nitrilotriacetic acid affinity chromatography as previously described.
Kinetic parameters for the 9‐mer peptides α2, ω2, γ1, and γ3 were measured using a coupled GDH catalyzed reaction assay performed in microtiter plates as previously described. Here, the following components were used: (1) a 5× stock MOPS buffer consisting of 1 M 3‐(N‐morpholino)propanesulfonic acid pH 7.2, 25 mM CaCl2, 5 mM ETDA, and 50 mM α‐ketoglutarate (Sigma Aldrich) in distilled water; (2) nicotinamide adenine dinucleotide hydrogen (NADH, Sigma–Aldrich); (3) GDH from beef liver (Roche); (4) gluten peptides; (5) recombinant TG2 solved in 1mM EDTA/Tris‐buffered saline. Components 1–4 were mixed in PCR‐strips (Axygen) to give final concentrations of 1x stock buffer, 1 mM NADH, 0.125 U/µL GDH, and various peptide concentrations. The mixture was preincubated in the dark for 15 min, and the reaction was started by the addition of recombinant TG2 (final concentration of 50 µg/mL) followed by transfer to a microtiter plate (Thermo Scientific). Absorbance (340 nm) was measured continuously for 50 min at 37°C using a Victor 3V Multi‐Label Microplate Reader (Perkin Elmer‐Wallac). Initial reaction velocities were calculated from the linear area of the absorbance curves by determining the change in absorbance over time compared to the change from an NADH standard curve. The Michaelis constants (K M) and turnover rates (k cat) were calculated using the k cat equation analysis tool in GraphPad Prism 8.3.0 (GraphPad Software).

The target in assay [2] is T2, Recombinant human transglutaminase 2 (human, UniProt P21980 1-687).
T2 construct: human transglutaminase 2 (TGM2), cloned into the pACAB3 vector; Used enzymatically active with CaCl2; also called TG2; recombinant TG2
T2 sequence (looked up): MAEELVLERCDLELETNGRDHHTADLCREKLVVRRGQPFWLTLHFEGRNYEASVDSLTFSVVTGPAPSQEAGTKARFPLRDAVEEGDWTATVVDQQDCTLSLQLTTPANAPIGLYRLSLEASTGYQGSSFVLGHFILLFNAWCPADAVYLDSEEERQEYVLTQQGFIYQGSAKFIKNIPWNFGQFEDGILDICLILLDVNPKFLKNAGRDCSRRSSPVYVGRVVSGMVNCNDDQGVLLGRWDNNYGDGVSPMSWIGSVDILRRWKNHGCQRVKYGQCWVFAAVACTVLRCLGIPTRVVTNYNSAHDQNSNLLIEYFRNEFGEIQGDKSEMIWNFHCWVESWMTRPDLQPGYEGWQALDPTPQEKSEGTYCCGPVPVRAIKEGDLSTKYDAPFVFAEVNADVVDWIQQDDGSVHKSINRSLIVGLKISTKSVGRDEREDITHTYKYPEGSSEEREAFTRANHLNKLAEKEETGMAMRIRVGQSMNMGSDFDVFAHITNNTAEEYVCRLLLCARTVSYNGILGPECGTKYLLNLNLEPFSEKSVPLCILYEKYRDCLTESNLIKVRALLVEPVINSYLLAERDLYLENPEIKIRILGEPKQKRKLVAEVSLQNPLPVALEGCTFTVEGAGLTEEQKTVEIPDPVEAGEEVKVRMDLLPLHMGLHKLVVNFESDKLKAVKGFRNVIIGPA

Assay [3] concerns the target T2, Recombinant human transglutaminase 2. Briefly: flow cytometry on cells; recombinant TG2 (3 µg/mL), 5 µM FITC peptide and 2 mM CaCl2 in RPMI with A20 cells expressing the TG2-specific BCR 679-14-E06, 37°C; stopped with EDTA, cells washed and fixed; cell-bound FITC peptide read as delta MFI against A20 cells with the non-TG2-specific BCR 693-2-F02. The following applies: both partners purified.

With Ac‐QP Q QPYPQQ [γ3], in assay [1], the Km was 130 ± 30 µM and the kcat worked out at 23.2±1.0 min^–1. For the molecule Ac‐QQSFP Q QQR [γ1], in assay [1], the kcat/Km is listed as 100 min^–1/mM, the Km was determined as 240 ± 20 µM and the kcat turned out to be 24.0±0.7 min^–1. In assay [1] (native 9-mer peptides, compared with the other 9-mers), the “affinity to TG2 (Km), in words” value is reported as “twofold lower affinity to TG2”. Turning to PQP Q LPYPQ [α2], in assay [1], the kcat/Km was 197 min^–1/mM, the Km is 130 ± 20 µM and the kcat is given as 25.7±0.8 min^–1.

Turning to PQP Q QPFPW [ω2], in assay [1], the kcat/Km turned out to be 276 min^–1/mM, the Km amounted to 100 ± 20 µM and the kcat worked out at 27.6±1.0 min^–1.

B1: α2 9-mer gliadin peptide (native, harbouring the DQ2.5-glia-α2 epitope) (peptide)
peptide: PQPQLPYPQ
As for B1, the Km of TG2 turnover, GDH-coupled ammonia release assay (formation of the thioester intermediate complex), 37°C, pH 7.2 in assay [2] was determined as 0.13 mM.

B2: FITC-labeled γ3 9-mer gliadin peptide (native) (peptide)
peptide: {FITC-Ahx}-QPQQPYPQQ
notes: native 9-mer from γ-gliadin; The unlabelled peptide is N-terminally acetylated; also called FITC-γ3; source: synthetic peptide
As for B2, the binding result in assay [3] was “binds”.

B3: γ3 9-mer gliadin peptide (native, harbouring the TG2-targeted glutamine of the DQ2.5-glia-γ3 epitope) (peptide)
peptide: Ac-QPQQPYPQQ
On to B3, for which the Km of TG2 turnover, GDH-coupled ammonia release assay (formation of the thioester intermediate complex), 37°C, pH 7.2 in assay [2] is 0.13 mM.

B4: ω2 9-mer gliadin peptide (native, harbouring the DQ2.5-glia-ω2 epitope) (peptide)
peptide: PQPQQPFPW
In the case of B4, the Km of TG2 turnover, GDH-coupled ammonia release assay (formation of the thioester intermediate complex), 37°C, pH 7.2 in assay [2] was 0.1 mM.

B5: FITC-labeled γ1 9-mer gliadin peptide (native) (peptide)
peptide: {FITC-Ahx}-QQSFPQQQR
notes: native 9-mer from γ-gliadin; The unlabelled peptide is N-terminally acetylated; also called FITC-γ1; source: synthetic peptide
As to B5, in assay [3], the binding result is reported as “binds”.

B6: γ1 9-mer gliadin peptide (native, harbouring the TG2-targeted glutamine of the DQ2.5-glia-γ1 epitope) (peptide)
peptide: Ac-QQSFPQQQR
Regarding B6, the Km of TG2 turnover, GDH-coupled ammonia release assay (formation of the thioester intermediate complex), 37°C, pH 7.2 in assay [2] was 0.24 mM.

B7: FITC-labeled α2 9-mer gliadin peptide (native) (peptide)
peptide: {FITC-Ahx}-PQPQLPYPQ
notes: also called FITC-α2; source: synthetic peptide
Consider B7, for which, in assay [3], the binding result is “binds”.

B8: FITC-labeled ω2 9-mer gliadin peptide (native) (peptide)
peptide: {FITC-Ahx}-PQPQQPFPW
notes: also called FITC-ω2; source: synthetic peptide
With B8, the binding result in assay [3] is given as “binds”.
